Experimental data published in patent publication US20220235006A1, “PYRIDINE DERIVATIVES AS TMEM16A MODULATORS FOR USE IN THE TREATMENT OF RESPIRATORY CONDITIONS” (TMEM16A LIMITED, priority 2019, published 2022).

Molecular target: T1, human TMEM16A (TMEM16Aabc variant) (Homo sapiens, UniProt Q5XXA6, DEL476-501)
T1 sequence (Q5XXA6 with tags, fused parts or gaps isoform Q5XXA6-5 DEL539-564): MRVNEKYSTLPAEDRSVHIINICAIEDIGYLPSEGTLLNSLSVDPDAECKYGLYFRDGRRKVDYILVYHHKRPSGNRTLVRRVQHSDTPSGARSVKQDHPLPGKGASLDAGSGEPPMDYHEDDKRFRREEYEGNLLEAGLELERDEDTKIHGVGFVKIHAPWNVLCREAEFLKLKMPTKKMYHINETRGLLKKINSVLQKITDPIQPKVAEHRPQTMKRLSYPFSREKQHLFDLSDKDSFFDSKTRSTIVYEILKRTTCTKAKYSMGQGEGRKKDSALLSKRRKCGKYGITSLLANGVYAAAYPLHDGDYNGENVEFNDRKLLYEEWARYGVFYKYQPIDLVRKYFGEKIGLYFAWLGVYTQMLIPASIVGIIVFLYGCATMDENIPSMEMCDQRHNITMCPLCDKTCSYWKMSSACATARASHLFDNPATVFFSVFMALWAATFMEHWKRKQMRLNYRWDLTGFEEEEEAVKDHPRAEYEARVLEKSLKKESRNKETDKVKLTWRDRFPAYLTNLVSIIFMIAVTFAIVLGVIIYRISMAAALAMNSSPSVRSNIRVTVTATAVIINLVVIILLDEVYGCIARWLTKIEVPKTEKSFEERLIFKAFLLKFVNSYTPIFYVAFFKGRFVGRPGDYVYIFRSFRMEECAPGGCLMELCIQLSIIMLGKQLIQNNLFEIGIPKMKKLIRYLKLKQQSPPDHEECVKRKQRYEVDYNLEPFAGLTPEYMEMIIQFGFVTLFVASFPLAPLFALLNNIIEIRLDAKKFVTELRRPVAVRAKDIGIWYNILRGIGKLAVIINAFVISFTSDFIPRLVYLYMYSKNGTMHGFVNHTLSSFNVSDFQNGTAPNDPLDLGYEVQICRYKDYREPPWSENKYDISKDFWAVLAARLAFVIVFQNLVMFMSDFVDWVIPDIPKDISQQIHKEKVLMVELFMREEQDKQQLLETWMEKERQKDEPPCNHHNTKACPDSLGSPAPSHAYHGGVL
Test: Automated whole-cell patch clamp (Qpatch) TMEM16A potentiator assay in recombinant FRT cells
Format: cell-based
Settings: for activation at 3.33 µM: percentage increase of baseline TMEM16A current, minimum n = 2, read-out: % Potentiation @ 3.33 uM Avg; for EC50: minimum n = 2
Method: Automated Whole-Cell Patch Clamp Assay to Detect TMEM16A Activity in Recombinant Cells
Fisher rat thyroid (FRT) cells stably expressing human TMEM16A (TMEM16Aabc variant; Dr Luis Galietta, Insituto Giannina, Italy) were cultured in T-75 flasks in Hams F-12 media with Coon's modification (Sigma) supplemented with 10% (v/v) foetal bovine serum, penicillin-streptomycin (10,000 U/mL/10000 μg/mL), G-418 (750 μg/mL), L-glutamine (2 mM) and sodium bicarbonate solution (7.5% v/v). At ˜90% confluence cells were harvested for experiments by detachment with a 2:1 (v/v) mixture of Detachin (BMS Biotechnology) and 0.25% (w/v) trypsin-EDTA.
FRT-TMEM16A cells were whole-cell patch clamped using an automated planar patch clamp system (Qpatch, Sophion). Briefly, once high resistance (GOhm) seals were established between the cells and the planar recording array the patch was ruptured using suction pulses to establish the whole-cell recording configuration of the patch clamp technique. The assay employed the following solutions (all reagents Sigma): Intracellular solution (mM): N-methyl-D-glucamine 130, CaCl2 18.2, MgCl2 1, HEPES 10, EGTA 10, BAPTA 20, Mg-ATP 2, pH 7.25, 325 mOsm with sucrose.
Extracellular solution (mM): N-methyl-D-glucamine 130, CaCl2 2, MgCl2 1, HEPES 10, pH 7.3, 320 mOsm with sucrose.
The intracellular solution buffers intracellular calcium at levels required to give ˜20% activation of the maximal TMEM16A mediated current (E020 for calcium ions). Cells were voltage clamped at a holding potential of −70mV and a combined voltage step (to +70 mV)/ramp (−90 my to +90 mV) was applied at 0.05 Hz. After a period of current stabilisation test compounds, solubilised in 100% (v/v) DMSO and subsequently diluted into extracellular solution, were applied to generate a cumulative concentration response curve. Each concentration of test compound was incubated for 5 minutes before addition of the next concentration. After the final concentration was tested a supramaximal concentration of either a known active positive modulator or the TMEM16A inhibitor, CaCCinhA01 (Del La Fuente et al, 2008) was added to define the upper and lower limits of the assay.
Compound activity was quantified by measuring the increase in current upon compound addition and expressing this as a percentage increase of baseline TMEM16A current level.
Peak TMEM16A current at +70 mV was plotted as a function of time over the assay period. Baseline current (IBL) was measured after a period of stabilisation. The increase in current for each compound addition was determined by taking the peak current during the incubation period and subtracting the current from the previous recording period and then expressing this as a percentage of the baseline current (% potentiation). For test compound concentration 1 in FIG. 1 this is:
For each additional concentration tested the increase in current was determined by subtracting the current from the previous incubation period and normalising the baseline value—for test concentration 2 in FIG. 1 this is:
The values for each test concentration were plotted as a cumulative function of concentration eg. for test concentration two this would be the sum of the peak changes measured during concentration one plus concentration two.

activation at 3.33 µM	EC50	Structure (SMILES)
214%	181 nM	CC1(NC(=O)c2cc(NC(=O)Cc3cc(O)c(C(C)(C)CO)cc3F)ccn2)CCOCC1 [Example 16.1, 4-[[2-[2-Fluoro-5-hydroxy-4-(2-hydroxy-1,1-dimethyl-ethyl)phenyl]acetyl]amino]-N-(4-methyltetrahydropyran-4-yl)pyridine-2-carboxamide]
209%	42 nM	Cc1cc(C(C)(C)O)c(O)cc1CC(=O)Nc1ccnc(C(=O)NC2(C(F)(F)F)CC2)c1 [Example 2.12, 4-[[2-[5-Hydroxy-4-(1-hydroxy-1-methyl-ethyl)-2-methyl-phenyl]acetyl]amino]-N-[1-(trifluoromethyl)cyclopropyl]pyridine-2-carboxamide]
406%	52 nM	CC(C)(CO)c1cc(F)c(CC(=O)Nc2ccnc(C(=O)NC3(C(F)(F)F)COC3)c2)cc1O [Example 12.1, 4-[[2-[2-Fluoro-5-hydroxy-4-(2-hydroxy-1,1-dimethyl-ethyl)phenyl]acetyl]amino]-N-[3-(trifluoromethyl)oxetan-3-yl]pyridine-2-carboxamide]
413%	279 nM	O=C(Cc1cc(O)c(C2(CO)CCOCC2)cc1F)Nc1ccnc(C(=O)NC2(C(F)(F)F)CC2)c1 [Example 2.15, 4-[[2-[2-Fluoro-5-hydroxy-4-[4-(hydroxymethyl)tetrahydropyran-4-yl]phenyl]acetyl]amino]-N-[1-(trifluoromethyl)cyclopropyl]pyridine-2-carboxamide]
302%	77 nM	CC(O)(c1cc(F)c(CC(=O)Nc2ccnc(C(=O)NC3(C(F)(F)F)CC3)c2)cc1O)C1CC1 (stereo not drawn) [Example 2.8, 4-[[2-[4-(1-Cyclopropyl-1-hydroxy-ethyl)-2-fluoro-5-hydroxy-phenyl]acetyl]amino]-N-[1-(trifluoromethyl)cyclopropyl]pyridine-2-carboxamide]
113%	14 nM	CC1(NC(=O)c2cc(NC(=O)Cc3cc(O)c(C(C)(C)CO)cc3F)ccn2)CC(F)(F)C1 [Example 15, N-(3,3-Difluoro-1-methyl-cyclobutyl)-4-[[2-[2-fluoro-5-hydroxy-4-(2-hydroxy-1,1-dimethyl-ethyl)phenyl]acetyl]amino]pyridine-2-carboxamide]
295%	100 nM	CC(CO)c1cc(F)c(CC(=O)Nc2ccnc(C(=O)NC3(C(F)(F)F)CC3)c2)cc1O (stereo not drawn) [Example 20, 4-[[2-[2-Fluoro-5-hydroxy-4-(2-hydroxy-1-methyl-ethyl)phenyl]acetyl]amino]-N-[1-(trifluoromethyl)cyclopropyl]pyridine-2-carboxamide]
150%	118 nM	CC(C)(CO)c1cc(F)c(CC(=O)Nc2ccnc(C(=O)NC3(C#N)CCOCC3)c2)cc1O [Example 12, N-(4-Cyanotetrahydropyran-4-yl)-4-[[2-[2-fluoro-5-hydroxy-4-(2-hydroxy-1,1-dimethyl-ethyl)phenyl]acetyl]amino]pyridine-2-carboxamide]
295%	115 nM	CC(C)(C#N)NC(=O)c1cc(NC(=O)Cc2cc(O)c(C(C)(C)CO)cc2F)ccn1 [Example 16.2, N-(1-Cyano-1-methyl-ethyl)-4-[[2-[2-fluoro-5-hydroxy-4-(2-hydroxy-1,1-dimethyl-ethyl)phenyl]acetyl]amino]pyridine-2-carboxamide]
226%	60 nM	CC(C)(CO)c1cc(F)c(CC(=O)Nc2ccnc(C(=O)NC3(C(F)F)CC3)c2)cc1O [Example 15.4, N-[1-(Difluoromethyl)cyclopropyl]-4-[[2-[2-fluoro-5-hydroxy-4-(2-hydroxy-1,1-dimethyl-ethyl)phenyl]acetyl]amino]pyridine-2-carboxamide]
83.6%	68 nM	CC(C)(C)NC(=O)c1cc(NC(=O)Cc2cc(O)c(C(C)(C)O)cc2F)ccn1 [Example 7, N-tert-Butyl-4-[[2-[2-fluoro-5-hydroxy-4-(1-hydroxy-1-methyl-ethyl)phenyl]acetyl]amino]pyridine-2-carboxamide]
315%	268 nM	CC(C)(O)c1cc(F)c(CC(=O)Nc2ccnc(C(=O)NC3(C(F)(F)F)CC3)c2)c(Cl)c1O [Example 18, 4-[[2-[2-Chloro-6-fluoro-3-hydroxy-4-(1-hydroxy-1-methyl-ethyl)phenyl]acetyl]amino]-N-[1-(trifluoromethyl)cyclopropyl]pyridine-2-carboxamide]
97.2%	238 nM	CC(C)(CO)NC(=O)c1cc(NC(=O)Cc2cc(O)c(C(C)(C)CO)cc2F)ccn1 [Example 12.3, 4-[[2-[2-Fluoro-5-hydroxy-4-(2-hydroxy-1,1-dimethyl-ethyl)phenyl]acetyl]amino]-N-(2-hydroxy-1,1-dimethyl-ethyl)pyridine-2-carboxamide]
196%	221 nM	O=C(Cc1cc(O)c(C2(O)CCOCC2)cc1F)Nc1ccnc(C(=O)NC2(C(F)(F)F)CC2)c1 [Example 13, 4-[[2-[2-Fluoro-5-hydroxy-4-(4-hydroxytetrahydropyran-4-yl)phenyl]acetyl]amino]-N-[1-(trifluoromethyl)cyclopropyl]pyridine-2-carboxamide]
244%	46 nM	CC(C)(O)c1cc(Cl)c(CC(=O)Nc2ccnc(C(=O)NC3(C(F)(F)F)CC3)c2)cc1O [Example 19, 4-[[2-[2-Chloro-5-hydroxy-4-(1-hydroxy-1-methyl-ethyl)phenyl]acetyl]amino]-N-[1-(trifluoromethyl)cyclopropyl]pyridine-2-carboxamide]
121%	40 nM	CC(C#N)(CO)NC(=O)c1cc(NC(=O)Cc2cc(O)c(C(C)(C)C)cc2F)ccn1 (stereo not drawn) [Example 1.6]
295%	149 nM	N#CC1(c2cc(F)c(CC(=O)Nc3ccnc(C(=O)NC4(C(F)(F)F)CC4)c3)cc2O)CCOCC1 [Example 2.9, 4-[[2-[4-(4-Cyanotetrahydropyran-4-yl)-2-fluoro-5-hydroxy-phenyl]acetyl]amino]-N-[1-(trifluoromethyl)cyclopropyl]pyridine-2-carboxamide]
190%	41 nM	C#CC(C)(C)NC(=O)c1cc(NC(=O)Cc2cc(O)c(C(C)(C)CO)cc2Cl)ccn1 [Example 15.1, 4-[[2-[2-Chloro-5-hydroxy-4-(2-hydroxy-1,1-dimethyl-ethyl)phenyl]acetyl]amino]-N-(1,1-dimethylprop-2-ynyl)pyridine-2-carboxamide]
